The record followed here is patent US9988400B2 (Genentech, Inc., priority 2013, dated 2018).

For the assay, the target named is T1, HEK cells stably transfected with tetracycline inducible hNR1 and hNR2A (Homo sapiens, UniProt Q05586+Q12879).
T1 construct: expressed in transfected cells; host or cells: HEK cells, stably transfected, tetracycline/doxycycline inducible
Description: Assay 1: Cell-Based Assay, cytosolic calcium response to positive allosteric modulators (with 30 μM glycine and 300 nM L-glutamate, EC30). The following applies: Table 2; for EC50: cytosolic calcium response, with 30 μM glycine and 300 nM L-glutamate (EC30), — = no plateau was reached; for Max %: responses scaled relative to 100 μM L-glutamate maximal response (100%) and 0 μM L-glutamate (0%). The method, then:
Assay 1: Cell-Based Assay
HEK cells stably transfected with tetracycline inducible hNR1 and hNR2A were seeded into clear bottom 384 well poly-D-lysine coated plates (2.5×10^4 cells per well) in Minimum Essential Media (MEM; without L-) including 7.5 μg mL^−1 doxycycline and 500 μM (+)-ketamine. The cells were incubated at 37° C. in 5% CO2 for 24 h. For measurement of changes in cytosolic calcium, the seeding media was removed and the cells incubated at 37° C. for 60 min with 1× Becton Dickinson Calcium Assay Kit reagent in Hanks Balanced Salt Solution (HBSS; w/o magnesium, including 1.8 mM calcium, 0.65 mg ml^−1 probenecid and 10 μM (+)-ketamine, pH 7.15) then allowed to equilibrate to rt for 30 min. Concentration-effect curves to Positive Allosteric Modulators (PAMs) were constructed by adding different concentrations (with 30 μM glycine and 300 nM L-glutamate (EC30)) to different wells in HBSS. Compounds were added after a 10 second baseline read and maximum level of relative fluorescence units (RFU) was measured over a 5 min period. Responses were scaled relative to 100 μM L-glutamate maximal response (100%) and 0 μM L-glutamate (0%). EC50 values are provided for compounds reaching maximal response plateaus, and the max % (EC50 (- -)) only if no plateau was reached.
A four-parameter Hill equation was fitted to individual concentration-effect curves:
[formula] in which Y, S0, Sinf, AC50, n and c were effect, lower-asymptote, upper-asymptote, mid-point location, slope parameter, and concentration respectively.

T1 sequence (Q12879 23-1464, other chains not shown): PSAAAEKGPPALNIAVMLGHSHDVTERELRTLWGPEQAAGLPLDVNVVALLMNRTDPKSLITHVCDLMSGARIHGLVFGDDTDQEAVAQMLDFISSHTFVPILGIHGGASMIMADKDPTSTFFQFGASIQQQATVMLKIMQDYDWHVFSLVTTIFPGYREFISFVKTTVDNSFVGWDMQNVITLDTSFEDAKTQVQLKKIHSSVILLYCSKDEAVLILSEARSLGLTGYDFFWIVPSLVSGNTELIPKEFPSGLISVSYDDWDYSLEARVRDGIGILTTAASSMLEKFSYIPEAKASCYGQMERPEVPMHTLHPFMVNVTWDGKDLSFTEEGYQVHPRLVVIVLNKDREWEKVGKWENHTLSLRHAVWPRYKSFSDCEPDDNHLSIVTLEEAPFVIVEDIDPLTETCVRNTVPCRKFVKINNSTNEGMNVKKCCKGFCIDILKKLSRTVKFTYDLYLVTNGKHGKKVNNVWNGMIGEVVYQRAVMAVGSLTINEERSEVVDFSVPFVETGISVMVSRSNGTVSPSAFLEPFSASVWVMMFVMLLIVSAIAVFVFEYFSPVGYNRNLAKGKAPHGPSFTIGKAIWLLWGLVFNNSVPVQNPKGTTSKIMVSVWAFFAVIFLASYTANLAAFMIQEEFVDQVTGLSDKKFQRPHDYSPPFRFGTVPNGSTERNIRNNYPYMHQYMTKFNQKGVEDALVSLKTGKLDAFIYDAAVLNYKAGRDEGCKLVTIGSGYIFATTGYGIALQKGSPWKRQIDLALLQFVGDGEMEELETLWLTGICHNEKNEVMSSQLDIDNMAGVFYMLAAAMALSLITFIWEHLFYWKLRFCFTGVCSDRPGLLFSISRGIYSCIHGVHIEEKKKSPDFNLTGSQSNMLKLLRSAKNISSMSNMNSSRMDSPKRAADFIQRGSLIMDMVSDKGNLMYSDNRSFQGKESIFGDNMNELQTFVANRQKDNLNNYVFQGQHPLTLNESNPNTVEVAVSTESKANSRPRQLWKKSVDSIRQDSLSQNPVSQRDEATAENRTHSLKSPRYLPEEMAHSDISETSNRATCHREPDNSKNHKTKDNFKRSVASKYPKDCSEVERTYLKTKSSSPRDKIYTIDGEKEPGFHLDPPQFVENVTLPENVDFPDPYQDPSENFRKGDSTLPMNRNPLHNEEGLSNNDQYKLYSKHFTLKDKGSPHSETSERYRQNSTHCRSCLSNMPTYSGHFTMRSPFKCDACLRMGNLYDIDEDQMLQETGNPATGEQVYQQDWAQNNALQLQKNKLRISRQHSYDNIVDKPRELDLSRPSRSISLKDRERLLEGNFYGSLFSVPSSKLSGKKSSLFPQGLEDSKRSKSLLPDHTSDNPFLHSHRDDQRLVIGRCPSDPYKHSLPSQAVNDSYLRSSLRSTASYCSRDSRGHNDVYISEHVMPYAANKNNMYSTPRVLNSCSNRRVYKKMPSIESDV

For `Cc1sc2nc(COc3ccc(F)cc3)cc(=O)n2c1C1CC1C#N` (racemic) [Example 4.18, cis-2-[7-(4-Fluorophenoxymethyl)-2-methyl-5-oxo-5H-[1,3]thiazolo[3,2-a]pyrimidin-3-yl]cyclopropane-1-carbonitrile], the EC50 worked out at 5 µM and the Max % is given as 102%. `Cc1sc2nc(COc3cccc(F)c3)cc(=O)n2c1[C@@H]1C[C@H]1CO` (relative stereo) [Example 4.4, 7-((3-fluorophenoxy)methyl)-3-(trans-2-(hydroxymethyl)cyclopropyl)-2-methyl-5H-thiazolo[3,2-a]pyrimidin-5-one]: the EC50 was determined as 2.5 µM and the Max % came out at 138%. As to `Cc1sc2nc(COc3ccc(F)cc3F)cc(=O)n2c1[C@@H]1C[C@H]1CO` (relative stereo) [Example 4.6, 7-(2,4-Difluorophenoxymethyl)-3-[trans-2-(hydroxymethyl)cyclopropyl]-2-methyl-5H-[1,3]thiazolo[3,2-a]pyrimidin-5-one], the EC50 came out at 7.7 µM and the Max % is listed as 128%. As to `Cc1sc2nc(COc3ccc(F)c(F)c3)cc(=O)n2c1[C@@H]1C[C@H]1CO` (relative stereo) [Example 4.7, 7-(3,4-Difluorophenoxymethyl)-3-[trans-2-(hydroxymethyl)cyclopropyl]-2-methyl-5H-[1,3]thiazolo[3,2-a]pyrimidin-5-one], the EC50 is 5.8 µM and the Max % came to 134%.

As for `Cc1sc2nc(COc3ccc(Cl)cc3)cc(=O)n2c1[C@@H]1C[C@H]1CO` (relative stereo) [Example 4.8, 7-(4-Chlorophenoxymethyl)-3-[trans-2-(hydroxymethyl)cyclopropyl]-2-methyl-5H-[1,3]thiazolo[3,2-a]pyrimidin-5-one], the half-maximal effective concentration (EC50) was determined as 4.4 µM and the Max % is on record as 99.3%. As for `Cc1sc2nc(COc3ccc(F)cn3)cc(=O)n2c1[C@@H]1C[C@H]1CO` (relative stereo) [Example 4.9, 7-[[(5-Fluoropyridin-2-yl)oxy]methyl]-3-[trans-2-(hydroxymethyl)cyclopropyl]-2-methyl-5H-[1,3]thiazolo[3,2-a]pyrimidin-5-one], the EC50 amounted to 4.4 µM and the Max % was found to be 123%. In the same order, the values of `Cc1sc2nc(COc3ccc(C(F)(F)F)cc3)cc(=O)n2c1[C@@H]1C[C@H]1CO` (relative stereo) [Example 4.10, 3-(trans-2-(hydroxymethyl)cyclopropyl)-2-methyl-7-((4-(trifluoromethyl)phenoxy)methyl)-5H-thiazolo[3,2-a] pyrimidin-5-one] are 4.3 µM and 108%. `Cc1sc2nc(COc3ccccc3F)cc(=O)n2c1[C@@H]1C[C@H]1CO` (relative stereo) [Example 4.12, 7-((2-fluorophenoxy)methyl)-3-(trans-2-(hydroxymethyl)cyclopropyl)-2-methyl-5H-thiazolo[3,2-a]pyrimidin-5-one]: the concentration for a half-maximal effect (EC50) stood at 30.6 µM and the Max % came out at 127%.

For `Cc1sc2nc(COc3ccc(C#N)cc3)cc(=O)n2c1[C@@H]1C[C@H]1CO` (relative stereo) [Example 4.13, 4-((3-(trans-2-(hydroxymethyl)cyclopropyl)-2-methyl-5-oxo-5H-thiazolo[3,2-a]pyrimidin-7-yl)methoxy)benzonitrile], the concentration for a half-maximal effect (EC50) worked out at 31.1 µM and the Max % is given as 72.8%. On to `O=c1cc(COc2ccc(F)cc2)nc2scc([C@@H]3C[C@H]3CO)n12` (relative stereo) [Example 4.14, 7-((4-fluorophenoxy)methyl)-3-(trans-2-(hydroxymethyl)cyclopropyl)-5H-thiazolo[3,2-a]pyrimidin-5-one], for which the concentration for a half-maximal effect (EC50) amounted to 7.8 µM and the Max % amounted to 93%.

Turning to `Cc1sc2nc(COc3ccc(F)cc3)cc(=O)n2c1[C@@H]1C[C@@H]1CO` (relative stereo) [Example 4.23, 7-(4-Fluorophenoxymethyl)-3-[cis-2-(hydroxymethyl)cyclopropyl]-2-methyl-5H-[1,3]thiazolo[3,2-a]pyrimidin-5-one], the 50% effective concentration (EC50) turned out to be 26.5 µM and the Max % is on record as 62.9%. For `Cc1sc2nc(COc3ccc(F)cc3)cc(=O)n2c1[C@@H]1C[C@H]1C(F)(F)F` (relative stereo) [Example 4.24, trans-7-(4-Fluorophenoxymethyl)-2-methyl-3-[2-(trifluoromethyl)cyclopropyl]-5H-[1,3]thiazolo[3,2-a]pyrimidin-5-one], in that order: 2.1 µM and 80%. As for `Cc1sc2nc(COc3ccc(F)cc3)cc(=O)n2c1[C@@H]1C[C@H]1CC#N` (relative stereo) [Example 4.26, trans-2-[2-[7-(4-Fluorophenoxymethyl)-2-methyl-5-oxo-5H-[1,3]thiazolo[3,2-a]pyrimidin-3-yl]cyclopropyl]acetonitrile], the Max % was found to be 98.8%. For the compound `Cc1sc2nc(COc3ccc(F)cc3)c(F)c(=O)n2c1[C@@H]1C[C@H]1CO` (relative stereo) [Example 4.29, 6-fluoro-7-((4-fluorophenoxy)methyl)-3-(trans-2-(hydroxymethyl)cyclopropyl)-2-methyl-5H-thiazolo[3,2-a]pyrimidin-5-one], the EC50 came out at 17.5 µM and the Max % was found to be 134%. `CCN(Cc1cc(=O)n2c([C@@H]3C[C@H]3CO)c(C)sc2n1)c1ccccn1` (relative stereo) [Example 5.7, 7-((ethyl(pyridine-2-yl)amino)methyl)-3-(trans-2-(hydroxymethyl)cyclopropyl)-2-methyl-5H-thiazolo[3,2-a] pyrimidin-5-one]: the EC50 was determined as 0.867 µM and the Max % is reported as 160%. For `CCN(Cc1cc(=O)n2c([C@@H]3C[C@H]3CO)c(C)sc2n1)c1ccc(F)cc1` (relative stereo) [Example 5.17, 7-((ethyl(4-fluorophenyl)amino)methyl)-3-(trans-2-(hydroxymethyl)cyclopropyl)-2-methyl-5H-thiazolo[3,2-a] pyrimidin-5-one], in that order: 0.108 µM and 176%. `CCN(Cc1cc(=O)n2c([C@@H]3C[C@H]3CO)csc2n1)c1ccc(F)cc1` (relative stereo) [Example 5.28, 7-[(N-ethyl-4-fluoro-anilino)methyl]-3-[trans-2-(hydroxymethyl)cyclopropyl)thiazolo[3,2-a]pyrimidin-5-one]: the concentration for a half-maximal effect (EC50) was determined as 0.0952 µM and the Max % was 176%. As for `CCN(Cc1cc(=O)n2c([C@@H]3C[C@H]3CF)c(C)sc2n1)c1ccc(F)cc1` (relative stereo) [Example 5.39, 7-((ethyl(4-fluorophenyl)amino)methyl)-3-(trans-2-(fluoromethyl)cyclopropyl)-2-methyl-5H-thiazolo[3,2-a]pyrimidin-5-one], the EC50 is 0.952 µM and the Max % is given as 167%. As to `Cc1sc2nc(Cn3nc(C(F)(F)F)cc3C(F)(F)F)cc(=O)n2c1[C@@H]1C[C@H]1CO` (relative stereo) [Example 15.2, 7-((3,5-bis(trifluoromethyl)-1H-pyrazol-1-yl)methyl)-3-(trans-2-(hydroxymethyl)cyclopropyl)-2-methyl-5H-thiazolo[3,2-a]pyrimidin-5-one], the 50% effective concentration (EC50) stood at 1 µM and the Max % is on record as 167%. With `Cc1sc2nc(Cn3nc(Cl)cc3C)cc(=O)n2c1[C@@H]1C[C@H]1CO` (relative stereo) [Example 15.3, 7-((3-chloro-5-methyl-1H-pyrazol-1-yl)methyl)-3-(trans-2-(hydroxymethyl)cyclopropyl)-2-methyl-5H-thiazolo[3,2-a]pyrimidin-5-one], the half-maximal effective concentration (EC50) turned out to be 0.489 µM and the Max % is on record as 144%.

Regarding `Cc1cc(Cl)n(Cc2cc(=O)n3c([C@@H]4C[C@H]4CO)c(C)sc3n2)n1` (relative stereo) [Example 15.4, 7-((5-chloro-3-methyl-1H-pyrazol-1-yl)methyl)-3-(trans-2-(hydroxymethyl)cyclopropyl)-2-methyl-5H-thiazolo[3,2-a]pyrimidin-5-one], the concentration giving a half-maximal response (EC50) is 0.782 µM and the Max % is on record as 137%. For the compound `Cc1sc2nc(Cn3ccc(C(F)(F)F)n3)cc(=O)n2c1[C@@H]1C[C@H]1CO` (relative stereo) [Example 15.5, 3-(trans-2-(hydroxymethyl)cyclopropyl)-2-methyl-7-((3-(trifluoromethyl)-1H-pyrazol-1-yl)methyl)-5H-thiazolo[3,2-a]pyrimidin-5-one], the EC50 worked out at 1.7 µM and the Max % is on record as 131%. Regarding `Cc1sc2nc(Cn3ncc4ccccc43)cc(=O)n2c1[C@@H]1C[C@H]1CO` (relative stereo) [Example 15.6, 7-((1H-indazol-1-yl)methyl)-3-(trans-2-(hydroxymethyl)cyclopropyl)-2-methyl-5H-thiazolo[3,2-a]pyrimidin-5-one], the half-maximal effective concentration (EC50) came to 9.2 µM and the Max % came to 138%.

What is called EC50 is the concentration needed to bring the measured effect to its halfway point.
